In the assay the test system is mBMDCs. The assay is described as follows: Costimulatory molecule expression on mBMDCs (flow cytometry). The note with it: 634 10 μM, ION 1 μM, MPLA 1 μg/mL overnight, vs Veh. It is filed as cell-based, mouse. Here is the method: FIGS. 26A-26D. Flow cytometric analysis for costimulatory molecules on mBMDCs. For costimulatory molecules on mBMDCs, mBMDCs (10^6 cells/mL) were incubated with 634 (10 μM), ION (1 μM), and MPLA (1 μg/mL) for 20-24 hours. 0.5% DMSO was used as a vehicle. After removing the supernatant, cells were washed with the stain buffer and incubated with anti-mouse CD16/32 antibody for blocking FcR. Cells were stained with an antibody cocktail with anti-CD86 (A), anti-CD80 (B), anti-MHC class II (C), and anti-CD40 (D) antibodies for 30 minutes at 4° C. Cells were then washed and stained with DAPI (4′,6-diamino-2phenylindole) for 10 minutes at room temperature to exclude dead cells (DAPI^high) from the analysis. Data were acquired using MACSQuant Analyzer 10 (Miltenyi Biotec, Germany) and analyzed with FlowJo (version 10.8.1).
mBMDCs (10^5 cells/200 μL/well) were treated with a test compound (10 μM) or Veh (0.5% DMSO) overnight and then the costimulatory molecule expression on mBMDCs was evaluated using flow cytometry. The cells were stained with antibodies for CD11c, CD80, CD83, CD86, CD40, and MHC class II. Dead cells (DAPI high) were excluded from the analysis. Percent positive population of CD80, CD83, CD86, CD40, or MHC class II in the gated CD11c population were analyzed.
Costimulatory Molecule Expression Analysis. mBMDCs (10^6 cells/mL) were incubated with 10 μM compound, 1 μM lonomycin and 1 μg/mL MPLA for 20 to 24 hours. 0.5% DMSO was used as vehicle. Cells were incubated with anti-mouse CD16/32 antibody for blocking FcR and stained with anti-CD11c, anti-CD40, […], anti-CD83, […], or anti-MHC class II antibodies for 30 minutes at 4° C. Cells were stained with 4′,6-diamino-2-phenylindole (DAPI) for 10 minutes at RT. Data were acquired using MACSQuant Analyzer 10 (Miltenyi Biotec, Germany) and analyzed with FlowJo (version 10.8.1, Becton Dickinson, Ashland, OR)).
For orientation: A flow cytometer gives signals particle by particle.

Turning to `CCOC(=O)c1c(NS(=O)(=O)c2cccc3nsnc23)sc(C)c1C` [compound 634, Ethyl 2-(benzo[c][1,2,5]thiadiazole-4-sulfonamido)-4,5-dimethylthiophene-3-carboxylate], the “CD80 expression on mBMDCs” value is “increased CD86 and CD80 expression on mBMDCs”; the “CD86 expression on mBMDCs” value was “increased CD86 and CD80 expression on mBMDCs”.

(Values after patent US20250281465A1, “MOLECULES THAT ENHANCE EXTRACELLULAR VESICLE RELEASE” (priority 2022, published 2025).)
